Measured values reported in the NIST ThermoML archive (doi:10.1016/j.jct.2015.06.020).
± gives the expanded uncertainty stated by the source.

Experiments:
[1] = molar heat capacity at constant pressure; conditions: 101.33 kPa, Crystal, Large sample (1 g) DSC
[2] = Molar enthalpy of transition or fusion; conditions: Crystal; DSC
[3] = Crystal; DTA

NC(=NO)c1nonc1N [4-amino-3-furazancarboxamidoxime]
[1]
Conditions	molar heat capacity at constant pressure [J/K/mol]
283.15 K	173.37 ± 3.5
288.15 K	175.71 ± 3.5
293.15 K	178.06 ± 3.6
298.15 K	180.4 ± 3.6
303.15 K	182.75 ± 3.7
308.15 K	185.1 ± 3.7
313.15 K	187.44 ± 3.8
318.15 K	189.79 ± 3.8
323.15 K	192.13 ± 3.8
328.15 K	194.48 ± 3.9
333.15 K	196.83 ± 3.9
338.15 K	199.17 ± 4
343.15 K	201.52 ± 4
348.15 K	203.86 ± 4.1
353.15 K	206.21 ± 4.1

Conditions	Molar enthalpy of transition or fusion [kcal/mol]	Normal melting temperature [°C]
[2]	8.99 ± 0.213	–
[3]	–	180.41 ± 0.86
